Measurements from PubChem BioAssay (NCI).
Where “and” joins values, the source holds several entries; their conditions need not be identical. Equal values may be shown once.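 Growth conditions: 96-well plates. Treatment: test compound, 48 hours, 5 concentrations. Analysis: linear interpolation between bracketing concentrations; unreached endpoints set to highest concentration. The concentration for 50% growth inhibition is given as GI50. At the TGI there is no net growth.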

Legend:
Test in all cases: NCI anticancer screen, dose series, 48 h
[1] = system: HL-60(TB) leukemia
[2] = system: T-47D breast
[3] = system: 786-0 renal
[4] = system: MDA-MB-435
[5] = system: SK-MEL-2 melanoma
[6] = system: SNB-75 CNS
[7] = system: HCC-2998 colon
[8] = system: COLO 205 colon
[9] = system: IGROV1 ovarian
[10] = system: OVCAR-4 ovarian

Compound Nc1c(C(=O)c2cccc(-c3cccnc3)c2)cnn1-c1ccc(F)cc1 has a GI50 [1] of over 25 µM, a TGI [1] of over 25 µM and a GI50 [2] of over 25 µM. For the same compound, the TGI [2] was over 25 µM, the GI50 [3] was over 25 µM and the TGI [3] was over 25 µM. The GI50 [4] was over 25 µM, the TGI [4] was over 25 µM and the GI50 [5] was over 25 µM. The TGI [5] was over 25 µM, the GI50 [6] was over 12.6 µM and the TGI [6] was over 25 µM. It also gave a GI50 [7] of over 25 µM, a TGI [7] of over 25 µM and a GI50 [8] of over 25 µM. It also gave a TGI [8] of over 25 µM, a GI50 [9] of over 25 µM and a TGI [9] of over 25 µM. It also gave a GI50 [10] of over 16.3 µM and a TGI [10] of over 25 µM.
NC(CSC(c1ccccc1)(c1ccccc1)c1ccccc1)C(=O)O (stereo not given) was tested, and the GI50 [1] was 2.54 µM and 2.11 µM, the TGI [1] was 5.93 µM and 1.53 µM and 8.62 µM and the GI50 [2] was 3.46 µM. The TGI [2] was 54.9 µM and 53.4 µM, the GI50 [3] was 1.41 µM and 4.24 µM and the TGI [3] was 70.3 µM and > 100 µM. For the same compound, the GI50 [4] was 0.275 µM, the TGI [4] was 0.648 µM and 0.791 µM and the GI50 [5] was 1.51 µM and 0.886 µM. The TGI [5] was 5.34 µM and 9.72 µM and 5.63 µM, the GI50 [6] was 2.34 µM and the TGI [6] was 9.45 µM and 50.6 µM and 29.2 µM. For the same compound, the GI50 [7] was 2.52 µM and 2.64 µM, the TGI [7] was 7.4 µM and 10.8 µM and 23.9 µM and the GI50 [8] was 3.27 µM and 1.34 µM. The GI50 [9] was 3.98 µM and 4.69 µM, the TGI [9] was 84.8 µM and > 100 µM and the GI50 [10] was 11.6 µM and 11.2 µM. The TGI [10] was 61 µM and > 100 µM.
Work on CN(C)S(=O)(=O)c1cccc(C(=O)Nc2nc(-c3ccc(F)c(F)c3)cs2)c1 yielded a GI50 [1] of 6.08 µM, a TGI [1] of over 100 µM and a GI50 [2] of 3.77 µM. It also gave a TGI [2] of over 100 µM, a GI50 [3] of 18.8 µM and a TGI [3] of 90.4 µM. It also gave a GI50 [4] of 5.41 µM, a TGI [4] of over 100 µM and a GI50 [5] of 19.4 µM. It also gave a TGI [5] of over 100 µM, a GI50 [6] of 4.96 µM and a TGI [6] of over 60.8 µM. The GI50 [7] was 58.9 µM, the TGI [7] was over 100 µM and the GI50 [8] was 35.6 µM. It also gave a TGI [8] of over 100 µM, a GI50 [9] of 28 µM and a TGI [9] of over 96.4 µM. It also gave a GI50 [10] of 4.62 µM and a TGI [10] of over 84.1 µM.
O=C1/C(=C/c2ccc(F)cc2)COc2ccc(O)c(O)c21 was tested, and the GI50 [1] was 0.604 µM, the TGI [1] was 3.89 µM and the GI50 [2] was 2.4 µM. The TGI [2] was 9.67 µM, the GI50 [3] was 1.84 µM and the TGI [3] was 5.63 µM. For the same compound, the GI50 [4] was 2.07 µM, the TGI [4] was 8.78 µM and the GI50 [5] was 4.61 µM. The TGI [5] was 47.5 µM, the GI50 [6] was 1.71 µM and the TGI [6] was over 100 µM. It also gave a GI50 [7] of 1.8 µM, a TGI [7] of 3.57 µM and a GI50 [8] of 2.76 µM. For the same compound, the TGI [8] was 10.3 µM, the GI50 [9] was 1.1 µM and the TGI [9] was 3.94 µM. The GI50 [10] was 2.77 µM and the TGI [10] was over 100 µM.
For CC(C)(C)OC(=O)N(CCCCN(CCCn1c2c(c3ccccc3c1=O)C(=O)c1ccccc1-2)C(=O)OC(C)(C)C)CCCn1c2c(c3ccccc3c1=O)C(=O)c1ccccc1-2, the GI50 [1] was over 100 µM, the TGI [1] was over 100 µM and the GI50 [2] was over 100 µM. It also gave a TGI [2] of over 100 µM, a GI50 [3] of 26.8 µM and a TGI [3] of over 100 µM. It also gave a GI50 [4] of 68.7 µM, a TGI [4] of over 100 µM and a GI50 [5] of 65.1 µM. The TGI [5] was over 100 µM, the GI50 [6] was over 100 µM and the TGI [6] was over 100 µM. The GI50 [7] was 10.9 µM, the TGI [7] was 41 µM and the GI50 [8] was over 100 µM. For the same compound, the TGI [8] was over 100 µM, the GI50 [10] was over 100 µM and the TGI [10] was over 100 µM.
For CN[C@@H](C)C(=O)N[C@H](C(=O)N1CCC[C@H]1c1nc(C(=O)c2ccc(F)cc2)cs1)C1CCCCC1, the GI50 [1] was 3.69 µM, the TGI [1] was 20 µM and the GI50 [2] was 20.4 µM. For the same compound, the TGI [2] was 77.8 µM, the GI50 [3] was 17.1 µM and the TGI [3] was 34 µM. It also gave a GI50 [4] of 16.3 µM, a TGI [4] of 40.6 µM and a GI50 [5] of 2.93 µM. It also gave a TGI [5] of 23.8 µM, a GI50 [6] of 4.31 µM and a TGI [6] of 20.9 µM. It also gave a GI50 [7] of 16 µM, a TGI [7] of 31.2 µM and a GI50 [8] of 16.5 µM. It also gave a TGI [8] of 31.9 µM, a GI50 [9] of 33.9 µM and a TGI [9] of over 100 µM. It also gave a GI50 [10] of 0.51 µM and a TGI [10] of 13.9 µM.
For O=[N+]([O-])c1ccccc1/C=N\NC(=S)N/N=C/c1ccccc1[N+](=O)[O-], the GI50 [1] was 3.59 µM, the TGI [1] was over 100 µM and the GI50 [2] was 4.93 µM. It also gave a TGI [2] of over 100 µM, a GI50 [3] of 38 µM and a TGI [3] of over 100 µM. It also gave a GI50 [4] of 0.426 µM, a TGI [4] of 3.62 µM and a GI50 [5] of 6.41 µM. It also gave a TGI [5] of over 100 µM, a GI50 [6] of 2.21 µM and a TGI [6] of 8.75 µM. For the same compound, the GI50 [7] was 20 µM, the TGI [7] was over 100 µM and the GI50 [8] was 11.3 µM. The TGI [8] was over 100 µM, the GI50 [9] was 3.67 µM and the TGI [9] was over 100 µM. It also gave a GI50 [10] of 20.6 µM and a TGI [10] of over 100 µM.
In the case of O=C(CCN1CCCC1)Nc1ccc2c(Nc3ccc(F)cc3)c3ccccc3nc2c1, the GI50 [1] is reported as 1.51 µM, the TGI [1] is reported as 3.75 µM and the GI50 [2] is reported as 1.01 µM. It also gave a TGI [2] of 3.79 µM, a GI50 [3] of 1.21 µM and a TGI [3] of 2.77 µM. It also gave a GI50 [4] of 1.58 µM, a TGI [4] of 3 µM and a GI50 [5] of 1.85 µM. It also gave a TGI [5] of 3.64 µM, a GI50 [6] of 1.37 µM and a TGI [6] of 2.72 µM. For the same compound, the GI50 [7] was 1.16 µM, the TGI [7] was 2.52 µM and the GI50 [8] was 1.3 µM. The TGI [8] was 3.51 µM, the GI50 [9] was 1.03 µM and the TGI [9] was 3.27 µM. It also gave a GI50 [10] of 1.21 µM and a TGI [10] of 3.03 µM.
Work on CN1CCN(C2=C(Cl)C(=O)c3ccccc3C2=O)CC1 yielded a GI50 [1] of 2.39 µM, a TGI [1] of 5.84 µM and a GI50 [2] of 0.789 µM. For the same compound, the TGI [2] was 2.73 µM, the GI50 [3] was 1.77 µM and the TGI [3] was 3.39 µM. It also gave a GI50 [4] of 1.95 µM, a TGI [4] of 3.6 µM and a GI50 [5] of 3.15 µM. It also gave a TGI [5] of 7.96 µM, a GI50 [6] of 1.91 µM and a TGI [6] of 4.91 µM. It also gave a GI50 [7] of 2.05 µM, a TGI [7] of 4.51 µM and a GI50 [8] of 1.51 µM. It also gave a TGI [8] of 2.9 µM, a GI50 [9] of 1.88 µM and a TGI [9] of 4.32 µM. It also gave a GI50 [10] of 1.59 µM and a TGI [10] of 2.95 µM.
Work on COc1ccc(Cn2cc3c(c2-c2ccccc2)CCc2cnoc2-3)cc1 yielded a GI50 [1] of 0.133 µM, a TGI [1] of 0.389 µM and a GI50 [2] of 1.32 µM. The TGI [2] was over 100 µM, the GI50 [3] was 0.243 µM and the GI50 [4] was 0.0311 µM. For the same compound, the TGI [4] was over 100 µM, the GI50 [5] was 2.79 µM and the TGI [5] was over 100 µM. For the same compound, the GI50 [6] was 0.165 µM, the TGI [6] was over 100 µM and the GI50 [7] was 0.209 µM. It also gave a TGI [7] of 0.905 µM, a GI50 [8] of 0.125 µM and a TGI [8] of 0.394 µM. It also gave a GI50 [9] of 0.114 µM, a TGI [9] of over 100 µM and a GI50 [10] of 0.47 µM. It also gave a TGI [10] of over 100 µM.
With CCN(Cc1ccc(Cl)c(Cl)c1)c1ccc2nc(N)nc(N)c2c1C the GI50 [1] was 0.195 µM, the TGI [1] was 2.54 µM and the GI50 [2] was 0.67 µM. For the same compound, the TGI [2] was 2.71 µM, the GI50 [3] was under 0.01 µM and the TGI [3] was 1.27 µM. It also gave a GI50 [4] of under 0.01 µM, a TGI [4] of 1.49 µM and a GI50 [5] of 1.48 µM. For the same compound, the TGI [5] was 3.02 µM, the GI50 [6] was 0.0945 µM and the TGI [6] was 2.01 µM. For the same compound, the GI50 [7] was 0.039 µM, the TGI [7] was 1.24 µM and the GI50 [8] was 0.148 µM. The TGI [8] was 1.69 µM, the GI50 [9] was under 0.01 µM and the TGI [9] was 1.58 µM. The GI50 [10] was 1.05 µM and the TGI [10] was 16.1 µM.
For O=C(O)/C=C/c1c2ccc(=O)c(O)c-2oc2c(O)c(O)ccc12, the TGI [1] was over 100 µM, the TGI [2] was over 100 µM and the TGI [3] was 54.9 µM. It also gave a TGI [4] of 33.5 µM, a TGI [5] of over 100 µM and a TGI [6] of over 100 µM. It also gave a TGI [7] of over 100 µM, a TGI [8] of over 100 µM and a TGI [9] of over 100 µM. The TGI [10] was over 100 µM.
With O=C(Nc1cc(Cl)c(I)c(Cl)c1)C(F)(F)F the TGI [1] was 58.3 µM, the TGI [2] was 97.6 µM and the TGI [3] was 74.4 µM. The TGI [4] was over 100 µM, the TGI [6] was over 100 µM and the TGI [7] was 34.2 µM. For the same compound, the TGI [8] was 53.9 µM, the TGI [9] was over 100 µM and the TGI [10] was over 100 µM.
